Measurements as given in US20260226493A1, “HERBICIDE RESISTANT PLANTS” (SYNGENTA CROP PROTECTION AG, priority 2023, published 2026).

Assays:
Assay in all cases: BIO3-BIO1 mutant enzyme activity in the presence of herbicide, percentage inhibition (fluorometric DAPA assay)
Type in all cases: biochemical
Details in all cases: read-out: percentage inhibition
[1] = target: T1, Arabidopsis thaliana BIO3-BIO1 (BioDA) mutants (Arabidopsis thaliana, UniProt B0F481, P510L)
T1 construct: with the predicted N-terminal mitochondrial transit peptide removed; 6xHis-tag (N); thrombin cleavage site (N); made in house; host or cells: E. coli BL21 (DE3) bioA
Text: (§1) A pet-24 plasmid containing a DNA sequence encoding each identified variant mutant of BIO3-BIO1 derived from Arabidopsis thaliana from example 5 above, as shown in Table 13 below and as shown in full in SEQ ID NOs: 15 to 155, codon-optimised for expression in E. coli, with an N-terminal 6×His-tag and thrombin cleavage site and under control of a T7 promoter, and was synthesised by Twist Bioscience, in a similar manner to SEQ ID NO:311. These plasmids were then expressed in E. coli BL21 (DE3) bioA with 50 μg/mL kanamycin and 25 μg/mL chloramphenicol selection. Overnight cultures grown at 37° C. were used to inoculate 8×500 mL AIM in shake flasks at a ratio of 1:100. Cultures were grown at 37° C., 200 rpm for 3.5 hours and then overnight at 20° C. Cells were harvested by centrifugation for 30 minutes at 10 000 g. Cells were stored at −80° C. until extraction. 30 g of cell pellet from was thawed in 120 mL of IMAC buffer A (20 mM HEPES pH7.5, 25 mM imidazole, 500 mM sodium chloride, 0.15 mM pyridoxal phosphate, 0.5 mM TCEP, 1× complete Protease Inhibitor Tablet (Roche)). The resuspension was passed through a cell disrupter at 18 000 PSI and centrifuged at 50 000 g for 25 minutes at 4° C. The His-tagged BIO3-BIO1 protein was purified from the extract supernatant on an AKTA avant chromatography system (Cytiva) using a HisTrap FF column and eluted in IMAC buffer B ((20 mM HEPES pH7.5, 500 mM imidazole, 500 mM sodium chloride, 0.15 mM pyridoxal phosphate, 0.5 mM TCEP) followed by SEC using a HiLoad 26/60 Superdex200 column in SEC buffer (25 mM HEPES pH7.5, 150 mM sodium chloride, 0.15 mM pyridoxal phosphate, 0.5 mM TCEP). Protein concentration was measured and calculated using the absorbance at 280 nm. Extracts were diluted 1 in 4 and 10 uL was analysed by SDS PAGE.
(§2) To measure BIO3-BIO1 mutant enzyme activity in the presence of herbicide, herbicides were incubated with 20 μL of enzyme mix (100 mM EPPS pH 8.6, 0.1 mM pyridoxal phosphate, 0.1 mg/mL BSA, 50 nM BIO3-BIO1 enzyme) for 10 minutes at 20° C. in a well of a 96-well half-area black plate, followed by the addition of 20 μL of substrate mix (final concentration of 100 mM EPPS pH 8.6, 0.1 mM pyridoxal phosphate, 0.1 mg/mL BSA, 100 μM spermidine, 20 μM KAPA, 100 mM NaCO3) and further incubation for 75 minutes at 20° C. The reaction was terminated by the addition of 50 μL of derivatisation mix (final concentration of 250 mM borate NaOH pH 9.4, 3.6 mM o-phthalaldehyde, 7 mM β-mercaptoethanol, 17% (v/v) ethanol, 3.6% (v/v) methanol). The fluorescent product produced by the reaction of DAPA with o-phthalaldehyde and 7 mM β-mercaptoethanol was measured at 470 nm after excitation at 410 nm. The percentage inhibition was calculated as the activity in the presence of one of three concentrations of each herbicide compound A to M (note that the compounds labelled as A to M are identified hereinabove in the relevant section of the description) as a percentage of the activity in DMSO (Table 12 and 13). The percentage activity versus WT was also calculated and is shown in Table 13 and 14 (NT indicates mutation not tested in table 13, note that these mutations are tested at different compound concentrations for compounds L, M and C, and the results are shown in table 14).

[2] = target: T2, Arabidopsis thaliana BIO3-BIO1 (BioDA) mutants (Arabidopsis thaliana, UniProt B0F481, G700S)
T2 construct: with the predicted N-terminal mitochondrial transit peptide removed; 6xHis-tag (N); thrombin cleavage site (N); made in house; host or cells: E. coli BL21 (DE3) bioA
Text: as §1, §2

[3] = target: T3, Arabidopsis thaliana BIO3-BIO1 (BioDA) mutants (Arabidopsis thaliana, UniProt B0F481, F348K)
T3 construct: with the predicted N-terminal mitochondrial transit peptide removed; 6xHis-tag (N); thrombin cleavage site (N); made in house; host or cells: E. coli BL21 (DE3) bioA
Text: as §1, §2

[4] = target: T4, Arabidopsis thaliana BIO3-BIO1 (BioDA) mutants (Arabidopsis thaliana, UniProt B0F481, Y511M)
T4 construct: with the predicted N-terminal mitochondrial transit peptide removed; 6xHis-tag (N); thrombin cleavage site (N); made in house; host or cells: E. coli BL21 (DE3) bioA
Text: as §1, §2

[5] = target: T5, Arabidopsis thaliana BIO3-BIO1 (BioDA) mutants (Arabidopsis thaliana, UniProt B0F481, T512C)
T5 construct: with the predicted N-terminal mitochondrial transit peptide removed; 6xHis-tag (N); thrombin cleavage site (N); made in house; host or cells: E. coli BL21 (DE3) bioA
Text: as §1, §2

[6] = target: T6, Arabidopsis thaliana BIO3-BIO1 (BioDA) mutants (Arabidopsis thaliana, UniProt B0F481, S509Q)
T6 construct: with the predicted N-terminal mitochondrial transit peptide removed; 6xHis-tag (N); thrombin cleavage site (N); made in house; host or cells: E. coli BL21 (DE3) bioA
Text: as §1, §2

[7] = target: T7, Arabidopsis thaliana BIO3-BIO1 (BioDA) mutants (Arabidopsis thaliana, UniProt B0F481, S509D)
T7 construct: with the predicted N-terminal mitochondrial transit peptide removed; 6xHis-tag (N); thrombin cleavage site (N); made in house; host or cells: E. coli BL21 (DE3) bioA
Text: as §1, §2

[8] = target: T8, Arabidopsis thaliana BIO3-BIO1 (BioDA) mutants (Arabidopsis thaliana, UniProt B0F481, S509N)
T8 construct: with the predicted N-terminal mitochondrial transit peptide removed; 6xHis-tag (N); thrombin cleavage site (N); made in house; host or cells: E. coli BL21 (DE3) bioA
Text: as §1, §2

[9] = target: T9, Arabidopsis thaliana BIO3-BIO1 (BioDA) mutants (Arabidopsis thaliana, UniProt B0F481, R756K)
T9 construct: with the predicted N-terminal mitochondrial transit peptide removed; 6xHis-tag (N); thrombin cleavage site (N); made in house; host or cells: E. coli BL21 (DE3) bioA
Text: as §1, §2

[10] = target: T10, Arabidopsis thaliana BIO3-BIO1 (BioDA) mutants (Arabidopsis thaliana, UniProt B0F481, R756S)
T10 construct: with the predicted N-terminal mitochondrial transit peptide removed; 6xHis-tag (N); thrombin cleavage site (N); made in house; host or cells: E. coli BL21 (DE3) bioA
Text: as §1, §2

[11] = target: T11, Arabidopsis thaliana BIO3-BIO1 (BioDA) mutants (Arabidopsis thaliana, UniProt B0F481, Q517H)
T11 construct: with the predicted N-terminal mitochondrial transit peptide removed; 6xHis-tag (N); thrombin cleavage site (N); made in house; host or cells: E. coli BL21 (DE3) bioA
Text: as §1, §2

[12] = target: T12, Arabidopsis thaliana BIO3-BIO1 (BioDA) mutants (Arabidopsis thaliana, UniProt B0F481, Y511F)
T12 construct: with the predicted N-terminal mitochondrial transit peptide removed; 6xHis-tag (N); thrombin cleavage site (N); made in house; host or cells: E. coli BL21 (DE3) bioA
Text: as §1, §2

T4 sequence (B0F481 23-833 Y511M): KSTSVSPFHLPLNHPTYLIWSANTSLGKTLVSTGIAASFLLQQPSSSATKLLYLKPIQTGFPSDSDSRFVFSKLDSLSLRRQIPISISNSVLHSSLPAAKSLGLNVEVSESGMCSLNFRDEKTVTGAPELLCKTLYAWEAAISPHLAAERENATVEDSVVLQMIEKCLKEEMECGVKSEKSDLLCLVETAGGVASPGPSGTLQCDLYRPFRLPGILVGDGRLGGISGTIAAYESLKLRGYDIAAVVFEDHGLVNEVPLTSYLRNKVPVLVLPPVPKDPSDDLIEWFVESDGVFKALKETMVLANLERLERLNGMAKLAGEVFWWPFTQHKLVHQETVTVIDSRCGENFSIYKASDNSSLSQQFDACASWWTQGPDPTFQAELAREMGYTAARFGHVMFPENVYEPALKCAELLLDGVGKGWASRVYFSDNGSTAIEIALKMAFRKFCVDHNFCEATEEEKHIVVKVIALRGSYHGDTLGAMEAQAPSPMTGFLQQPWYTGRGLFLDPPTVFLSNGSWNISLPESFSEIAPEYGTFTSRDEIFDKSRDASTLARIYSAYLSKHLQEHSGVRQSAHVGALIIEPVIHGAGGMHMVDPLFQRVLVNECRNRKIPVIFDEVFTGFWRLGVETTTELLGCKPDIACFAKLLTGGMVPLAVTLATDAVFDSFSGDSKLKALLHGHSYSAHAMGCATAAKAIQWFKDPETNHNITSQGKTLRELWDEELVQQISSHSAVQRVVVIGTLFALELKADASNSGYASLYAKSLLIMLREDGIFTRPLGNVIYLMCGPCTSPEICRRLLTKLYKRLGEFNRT
T9 sequence (B0F481 23-833 R756K): as the sequence (B0F481 23-833 Y511M) above, with M489Y, R734K counted along it
T2 sequence (B0F481 23-833 G700S): as the sequence (B0F481 23-833 Y511M) above, with M489Y, G678S counted along it
T11 sequence (B0F481 23-833 Q517H): as the sequence (B0F481 23-833 Y511M) above, with M489Y, Q495H counted along it
T3 sequence (B0F481 23-833 F348K): as the sequence (B0F481 23-833 Y511M) above, with F326K, M489Y counted along it
T5 sequence (B0F481 23-833 T512C): as the sequence (B0F481 23-833 Y511M) above, with M489Y, T490C counted along it
T7 sequence (B0F481 23-833 S509D): as the sequence (B0F481 23-833 Y511M) above, with S487D, M489Y counted along it
T12 sequence (B0F481 23-833 Y511F): as the sequence (B0F481 23-833 Y511M) above, with M489F counted along it
T1 sequence (B0F481 23-833 P510L): as the sequence (B0F481 23-833 Y511M) above, with P488L, M489Y counted along it
T6 sequence (B0F481 23-833 S509Q): as the sequence (B0F481 23-833 Y511M) above, with S487Q, M489Y counted along it
T8 sequence (B0F481 23-833 S509N): as the sequence (B0F481 23-833 Y511M) above, with S487N, M489Y counted along it
T10 sequence (B0F481 23-833 R756S): as the sequence (B0F481 23-833 Y511M) above, with M489Y, R734S counted along it

Structure (SMILES) | inhibition at 1 µM [4] [%] | inhibition at 1 µM [5] [%] | inhibition at 1 µM [1] [%] | inhibition at 1 µM [6] [%] | inhibition at 1 µM [7] [%] | inhibition at 1 µM [2] [%] | inhibition at 1 µM [8] [%] | inhibition at 1 µM [3] [%] | inhibition at 1 µM [9] [%] | inhibition at 1 µM [10] [%] | inhibition at 1 µM [11] [%] | inhibition at 1 µM [12] [%] | inhibition at 0.2 µM [4] [%] | inhibition at 5 µM [4] [%] | inhibition at 0.2 µM [5] [%] | inhibition at 5 µM [5] [%] | inhibition at 0.2 µM [1] [%] | inhibition at 5 µM [1] [%] | inhibition at 0.2 µM [6] [%] | inhibition at 5 µM [6] [%] | also measured
CCn1c(Cn2ccc(C(F)(F)F)n2)cc(=O)c(C(=O)O)c1-c1ccc(Cl)c(Cl)c1 [Compound L, 2-(3,4-dichlorophenyl)-1-ethyl-4-oxo-6-[[3-(trifluoromethyl)pyrazol-1-yl]methyl]pyridine-3-carboxylic acid] | – | – | – | – | – | – | – | – | – | – | – | – | – | – | – | – | – | – | – | – | inhibition at 0.01 µM [1]: 35%; inhibition at 0.075 µM [1]: 88%; inhibition at 0.5 µM [1]: 97%; inhibition at 0.01 µM [2]: 9%; inhibition at 0.075 µM [2]: 3%; inhibition at 0.5 µM [2]: 3%; inhibition at 0.01 µM [3]: 0%; inhibition at 0.075 µM [3]: 2%; inhibition at 0.5 µM [3]: 22%
CCOC(=O)c1nn(-c2ccc3c(c2)OC(F)(F)C(F)(F)O3)c2cccc(C(C)=O)c2c1=O [Compound A, ethyl 5-acetyl-4-oxo-1-(2,2,3,3-tetrafluoro-1,4-benzodioxin-6-yl)cinnoline-3-carboxylate] | 59 | 50 | 82 | 8 | 9 | 0 | 43 | 11 | 33 | 67 | 0 | 79 | – | – | – | – | – | – | – | – | –
CCn1c(-c2ccc(Cl)c(Cl)c2)c(C(=O)O)c(=O)c2cc(F)ccc21 [Compound M, 2-(3,4-dichlorophenyl)-1-ethyl-6-fluoro-4-oxo-quinoline-3-carboxylic acid] | 83 | 79 | 77 | 76 | 80 | 0 | 39 | 1 | 36 | 54 | 37 | 57 | 41 | 97 | 27 | 95 | 54 | 94 | 23 | 96 | inhibition at 0.2 µM [7]: 48%; inhibition at 5 µM [7]: 98%; inhibition at 0.2 µM [2]: 8%; inhibition at 5 µM [2]: 9%; inhibition at 0.2 µM [8]: 6%; inhibition at 5 µM [8]: 78%; inhibition at 0.2 µM [3]: 0%; inhibition at 5 µM [3]: 24%; inhibition at 0.2 µM [9]: 10%; inhibition at 5 µM [9]: 71%; inhibition at 0.2 µM [10]: 23%; inhibition at 5 µM [10]: 78%; inhibition at 0.2 µM [11]: 6%; inhibition at 5 µM [11]: 71%; inhibition at 0.2 µM [12]: 24%; inhibition at 5 µM [12]: 82%
CCn1c(C)c(-c2ccc(F)cc2F)c(=O)c(C(=O)O)c1-c1ccc(Cl)c(Cl)c1 [Compound C, 2-(3,4-dichlorophenyl)-5-(2,4-difluorophenyl)-1-ethyl-6-methyl-4-oxo-pyridine-3-carboxylic acid] | 99 | 83 | 84 | 82 | 91 | 0 | 50 | 11 | 42 | 57 | 44 | 67 | 76 | 100 | 22 | 97 | 67 | 96 | 23 | 99 | inhibition at 0.2 µM [7]: 59%; inhibition at 5 µM [7]: 103%; inhibition at 0.2 µM [2]: 9%; inhibition at 5 µM [2]: 9%; inhibition at 0.2 µM [8]: 16%; inhibition at 5 µM [8]: 86%; inhibition at 0.2 µM [3]: 0%; inhibition at 5 µM [3]: 15%; inhibition at 0.2 µM [9]: 6%; inhibition at 5 µM [9]: 80%; inhibition at 0.2 µM [10]: 24%; inhibition at 5 µM [10]: 83%; inhibition at 0.2 µM [11]: 11%; inhibition at 5 µM [11]: 77%; inhibition at 0.2 µM [12]: 44%; inhibition at 5 µM [12]: 90%
